Results from US20190376971A1, “Compositions and Methods for the Assessment of Drug Target Occupancy for Bruton's Tyrosine Kinase” (Acerta Pharma B.V., priority 2017, published 2019).

How the values were obtained:
BTK [1] = biological target: T1, BTK (Homo sapiens, UniProt Q06187); experiment: Binding of BODIPY/fluorescent probes to recombinant BTK, SDS-PAGE in-gel fluorescence; conditions: probe 0.1 μM, 2 hours
Experimental: To test different BTK target occupancy probes and lysis buffers, probes were incubated with recombinant BTK protein for 2 hours and subsequently run using sodium dodecyl sulfate polyacrylamide gel electrophoresis (SDS PAGE). When using the boron-dipyrromethene (BODIPY) tagged probes (such as Formula (5) and Formula (6)), the gel is measured directly using a fluorescence imager. BTK probe (final concentration 0.1 μM) is incubated with 125 ng BTK for 2 hours at room temperature. Afterwards, sample buffer is added and run on a SDS-PAGE gel. Fluorescent probes such as Formula (5) and Formula (6) are quantified in gel using the E tan Imager from GE Healthcare, suitable for the emission and detection of fluorescent signal for BODIPY tags.
(§1) SDS-PAGE procedures are known to those of ordinary skill in the art. A non-limiting example of a SDS-PAGE procedure is as follows: • 1. Add 1.1 μL of probe to 10 μL of each sample (recombinant BTK or cell lysate); final probe concentration 0.1 μM. • 2. Incubate 2 hour at room temperature. • 3. Add 4 μL sample buffer/DTT (200 μM) and incubate for 5 minutes at 95° C. • 4. Vortex and keep on ice until loading on gel. • 5. Spin down shortly and load 15 μL on a 12 slot Novex gradient gel (4-12% Bis-Tris gel). • 6. Run in NuPage MOPS SDS running buffer. • 7. After running the samples on gel, remove the gel from the surelock holder. • 8. For the samples on gel with the fluorescent probe, the gels are measured directly using an imager suitable for measuring the fluorescent label on the probes (e.g., E tan Imager; GE Healthcare (Cy2: 480/30 excitation, 530/40 emission, Cy3: 544 excitation, 570 emission). • 9. For the biotin labeled probes, the gel is blotted to a PVDF membrane, using the Western blot procedure below.
Target sequence in this assay (Q06187 whole entry, species assumed): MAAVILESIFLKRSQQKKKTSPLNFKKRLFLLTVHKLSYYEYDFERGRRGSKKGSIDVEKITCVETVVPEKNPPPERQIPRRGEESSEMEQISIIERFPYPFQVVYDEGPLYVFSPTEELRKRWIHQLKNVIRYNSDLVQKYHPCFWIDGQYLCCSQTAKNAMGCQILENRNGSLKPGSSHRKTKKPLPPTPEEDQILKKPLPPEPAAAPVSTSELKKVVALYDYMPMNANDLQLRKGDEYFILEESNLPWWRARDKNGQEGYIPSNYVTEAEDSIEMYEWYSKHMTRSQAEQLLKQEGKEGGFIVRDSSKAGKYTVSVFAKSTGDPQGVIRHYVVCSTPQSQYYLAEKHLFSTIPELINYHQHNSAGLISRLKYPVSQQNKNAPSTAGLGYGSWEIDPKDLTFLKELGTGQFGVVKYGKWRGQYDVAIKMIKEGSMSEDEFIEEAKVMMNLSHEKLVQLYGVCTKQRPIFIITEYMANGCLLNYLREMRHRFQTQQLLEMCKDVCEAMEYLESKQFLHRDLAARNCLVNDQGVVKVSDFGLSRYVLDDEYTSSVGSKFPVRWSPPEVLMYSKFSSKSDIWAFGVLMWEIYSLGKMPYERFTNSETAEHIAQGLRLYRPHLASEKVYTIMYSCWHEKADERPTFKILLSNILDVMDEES

BTK [2] = biological target: T1, BTK; experiment: BTK IMAP (immobilized metal ion affinity-based fluorescence polarization) assay; type: biochemical; set-up: endogenous in cells; host or cells: Ramos B cells (Ramos.2G6.4C10); conditions: 5 μM ATP, 60 min pre-incubation, read-out: IC50 for BTK inhibition
Experimental: In summary, BTK enzyme activity is measured using the IMAP (immobilized metal ion affinity-based fluorescence polarization) assay as outlined below. […] After 60 minutes of incubation at room temperature in the dark, the FP signal is read. Fluorescence at 535 nm is measured using parallel and perpendicular filters to determine differences in rotation due to binding of the phosphorylated substrate peptide to the beads. Values are calculated as a percentage of the difference in readout (ΔmPi) of the controls with and without ATP.
Inhibition of the activity of the protein kinase BTK can be measured with the assay described in this protocol. […] The method is based on IMAP, which is a homogeneous fluorescence polarization (FP) assay based on affinity capture of phosphorylated peptide substrates. […]
Target sequence in this assay (Q06187 whole entry): as the sequence (Q06187 whole entry, species assumed) above

BTK [3] = biological target: T1, BTK; experiment: Binding of biotin probes to recombinant BTK, Western blot with Streptavadin-HRP; conditions: PBS, lysis buffer 1 or lysis buffer 2
Experimental: For the biotin probes (such as Formula (3) and Formula (4)), samples are run using SDS-PAGE gel, followed by transferring the protein to a polyvinylidene fluoride (PVDF) membrane by Western blotting. Subsequently, the blot is blocked overnight at 4° C. in TBS-T (10 mM TRIS pH 7.4, 100 mM NaCl, 0.1% Tween 20)+2.5% (w/v) skimmed milk powder). The blot is washed 4× with TBS-T and then incubated with Streptavadin-HRP for 1 hour at room temperature. The blot is washed again 4× with TBS-T before adding the chemiluminescent substrate, followed by measurement of the chemiluminescence signal.
as §1, with “Spin down shortly and load 15 μL on a 12 slot Novex gradient gel (4-12% Bis-Tris gel). • 6. Run in NuPage MOPS SDS running buffer. • 7. After running the samples on gel, remove the gel from the surelock holder. • 8.” left out, “below. […]” for “below.”
Target sequence in this assay (Q06187 whole entry, species assumed): as above

[4] = lysis buffer 2 (1% Triton X100)

Row | SMILES | binding to recombinant BTK (fluorescence signal in gel) (BTK [1]; PBS or lysis buffer 1) | binding to recombinant BTK (fluorescence signal in gel) (BTK [1]; [4]) | IC50 (BTK [2]) | signal of biotin probe bound to BTK (Streptavadin-HRP chemiluminescence) (BTK [3])
1 | Cc1cc(C)n2c1C=C1C=CC(CCC(=O)NCCN3CCN(C/C=C/C(=O)N4CCC[C@H]4c4nc(-c5ccc(C(=O)Nc6ccccn6)cc5)c5c(N)nccn45)CC3)=[N+]1[B-]2(F)F [Formula (5)] | clear binding | minimal |  | 
2 | COc1ccc(-c2ccc3n2[B-](F)(F)[N+]2=C(C)C(CCC(=O)NCCN4CCN(C/C=C/C(=O)N5CCC[C@H]5c5nc(-c6ccc(C(=O)Nc7ccccn7)cc6)c6c(N)nccn56)CC4)=C(C)C2=C3)cc1 [Formula (4)] |  |  | 1.5 nM | 
3 | Nc1nccn2c([C@@H]3CCCCN3C(=O)/C=C/CN3CCN(CCNC(=O)CCCC(=O)NCCCOCCOCCOCCCNC(=O)CCCC[C@@H]4SC[C@@H]5NC(=O)N[C@@H]54)CC3)nc(-c3ccc(C(=O)Nc4ccccn4)cc3)c12 [Formula (3), N-[3-[2-[2-[3-[5-[(3aS,4S,6aR)-2-oxo-1,3,3a,4,6,6a-hexahydrothieno[3,4-d]imidazol-4-yl]pentanoylamino]propoxy]ethoxy]ethoxy]propyl]-N′-[2-[4-[(E)-4-[(2S)-2-[8-amino-1-[4-(2-pyridylcarbamoyl)phenyl]imidazo[1,5-a]pyrazin-3-yl]-1-piperidyl]-4-oxo-but-2-enyl]piperazin-1-yl]ethyl]pentanediamide] |  |  | 3.4 nM | stronger signal
4 | Nc1nccn2c([C@@H]3CCCN3C(=O)/C=C/CN3CCN(CCNC(=O)CCCC(=O)NCCCOCCOCCOCCCNC(=O)CCCC[C@@H]4SC[C@@H]5NC(=O)N[C@@H]54)CC3)nc(-c3ccc(C(=O)Nc4nccs4)cc3)c12 [Formula (6)] | clear binding | no detectable binding |  | 
